Data: US20090105327A1, “Dibenzocycloheptane compounds and pharmaceuticals containing these compounds” (Merckle GMBH, priority 2005, published 2009)
Blank lines part the entries; values can stand above or below the compound they belong to.

Experiments:
[1] = target: activated p38α (Homo sapiens, UniProt Q16539); assay: Kinase assay (p38 MAP kinase assay), ATF2 phosphorylation ELISA; assay type: biochemical; details: 100 μM ATP, 10 ng activated p38α, ATF2 substrate; read-out: Inhibition of p 38 MAP kinase assay IC50
Experimental: Kinase Assay (p38 MAP Kinase Assay)
Microtiter plates were coated with 50 μl of ATF2 solution (20 μg/ml) at 37° C. for one hour. After washing with water three times, 50 μl of kinase mixture (50 mM tris-HCl 10 mM MgCl2, 10 mM β-glycerol phosphate, 10 μg/ml BSA, 1 mM DTT, 100 μM ATP, 100 μM Na3VO4, 10 ng of activated p38α) with or without inhibitor were put into the wells and incubated at 37° C. for 1 hour. After washing three times, the plates were incubated with […] at 37° C. for one hour. After washing again three times, a goat anti-rabbit IgG labeled with alkaline phosphatase was added at 37° C. for one hour (in order to retain the antibody phosphorylated protein-substrate complex). After washing three times, the alkaline phosphatase substrate solution (3 mM 4-NPP, 50 mM NaHCO3, 50 mM MgCl2, 100 μl/well) was added at 37° C. for 1.5 hours. […] The IC50 values are calculated.

[2] = system: IL-1β; assay: tissue or blood; details: Homo sapiens, 4 h, read-out: Inhibition of IL-1β (whole blood) IC50
Experimental: (§1) The compounds or compositions of the invention can be administered to a mammal (human or animal) in a dose of about 0.5 mg to 100 mg per kg of body weight per day. They can be given in a single dose or in a plurality of doses. […] Pharm. Pharm. Med. Chem. 333, Suppl. 1, 1-40, 2000.
(§2) In Vitro Test Method with Human Whole Blood
(§3) Samples of human potassium EDTA whole blood (400 μl each) are mixed with the test substance and preincubated at 37° C. in a CO2 incubator (5% CO2; 95% moisture-saturated air) for 15 min. The samples are then stimulated with 1 μg/ml LPS (E. coli 026:B6) in a CO2 incubator (5% CO2; 95% moisture-saturated air) at 37° C. for 4 hours. The reaction is stopped by placing the samples on ice, adding DPBS buffer and subsequently centrifuging at 1000.g for 15 min. The amount of IL-1β and TNFα in the plasma supernatant is then measured by means of an ELISA.

[3] = system: TNF-α; assay: tissue or blood; details: Homo sapiens, 4 h, read-out: Inhibition of TNF-α (whole blood) IC50
Experimental: as §1, §2, §3

activated p38α, sequence (Q16539 whole entry): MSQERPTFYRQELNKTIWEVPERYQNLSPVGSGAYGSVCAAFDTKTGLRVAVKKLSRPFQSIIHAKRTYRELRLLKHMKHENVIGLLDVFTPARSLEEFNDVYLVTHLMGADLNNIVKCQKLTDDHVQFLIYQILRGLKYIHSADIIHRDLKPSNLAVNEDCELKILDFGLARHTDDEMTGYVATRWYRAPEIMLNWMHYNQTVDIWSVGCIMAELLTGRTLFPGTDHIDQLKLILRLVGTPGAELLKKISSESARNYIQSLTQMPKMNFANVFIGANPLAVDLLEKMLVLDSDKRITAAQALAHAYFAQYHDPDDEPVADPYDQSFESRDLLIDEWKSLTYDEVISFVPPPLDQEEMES

Compound: 3-(2-Amino-4-fluorophenylamino)-6,11-dihydrodibenzo[b,e]oxepin-11-one [Example 24]
IC50 [1]: 38 nM

Compound: Nc1ccccc1Nc1ccc2c(c1)SCc1ccccc1C2=O [Example 4, 3-(2-Aminoanilino)-6,11-dihydrodibenzo[b,e]thiepin-11-one]
IC50 [1]: 1100 nM

Compound: COc1ccccc1Nc1ccc2c(c1)CCc1ccccc1C2=O [Example 28, 2-(2-Methoxyphenylamino)-10,11-dihydrodibenzo[a,d]cyclohepten-5-one]
IC50 [1]: 159 nM
melting point: 52.5 °C

More lines, now with the values ahead:

IC50 [1]: 300 nM
Compound: Nc1ccccc1Nc1ccc2c(c1)OCc1ccccc1C2=O [Example 5, 3-(2-Aminoanilino)-6,11-dihydrodibenzo[b,e]oxepin-11-one]

IC50 [2]: 1800 nM
IC50 [3]: 2300 nM
Compound: Nc1ccccc1Nc1ccc2c(c1)CCc1ccccc1C2=O [Example 25, 2-(2-Aminophenylamino)-10,11-dihydrodibenzo[a,d]cycloheptan-5-one]
